Here are results for 19 molecules from patent US20260232812A1, “BIFUNCTIONAL MOLECULES FOR TARGETED PROTEIN DEGRADATION” (Amphista Therapeutics Limited, priority 2022, published 2026).

Molecules are shown by their SMILES.

Common to all, as to format: cell-based
The target of assay [1] is T1, BRD9 (Homo sapiens, UniProt Q9H8M2).
T1 sequence (Q9H8M2 1-597): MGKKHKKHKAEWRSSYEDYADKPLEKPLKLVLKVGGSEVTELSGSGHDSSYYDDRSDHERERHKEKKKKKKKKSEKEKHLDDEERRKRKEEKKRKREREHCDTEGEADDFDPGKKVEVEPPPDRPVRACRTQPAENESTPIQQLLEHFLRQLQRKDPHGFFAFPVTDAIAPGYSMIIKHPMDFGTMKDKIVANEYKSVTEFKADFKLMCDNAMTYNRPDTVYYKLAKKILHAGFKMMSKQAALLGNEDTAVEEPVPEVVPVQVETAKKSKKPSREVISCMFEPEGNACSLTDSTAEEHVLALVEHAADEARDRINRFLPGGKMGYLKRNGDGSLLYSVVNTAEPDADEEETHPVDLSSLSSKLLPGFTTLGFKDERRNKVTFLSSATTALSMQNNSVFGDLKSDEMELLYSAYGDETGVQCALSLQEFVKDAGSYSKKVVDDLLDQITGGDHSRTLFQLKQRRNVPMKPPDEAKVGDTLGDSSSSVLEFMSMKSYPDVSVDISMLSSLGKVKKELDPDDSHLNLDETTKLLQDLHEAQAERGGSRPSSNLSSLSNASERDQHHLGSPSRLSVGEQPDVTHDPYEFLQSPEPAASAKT
As to the kind of experiment: Assay Protocol 1 - Degradation of HiBit-BRD9 in HEK293. The following applies: titration up to 10 μM; for Dmax: HEK293, Assay Protocol 1: HiBit-BRD9 in HEK293, 6 h. As for the experimental part: Assay Protocol 1—Degradation of HiBit-BRD9 in HEK293
HEK293 stably expressing LgBit and containing a HiBit insertion for BRD9 were plated in 384-well tissue culture plates at a density of 8×10^3 per well in a volume of 36 μL and incubated overnight at 37° C. and 5% CO2. Wells were treated with test compounds (11 pt titration up to 10 μM) for 6 h prior to addition of Nano-Glo® Hibit Lytic buffer (1:50 substrate and 1:100 LgBit protein) and reading on a PheraSTAR. Degradation data was plotted and analysed using Prism 8 (Graphpad).
In general terms: The HiBiT peptide binds its large partner to form an active luciferase.

The target in assay [2] is T1, BRD9. As to the kind of experiment: Assay Protocol 2 - Degradation of BRD9 (IF) in MV4-11 cells. The arrangement: host or cells: MV4-11. The following applies: Assay Protocol 2: BRD9 immunofluorescence, 24 hours. The procedure:
Assay Protocol 2—Degradation of BRD9 (IF)
A suspension of MV4-11 cells (ATCC CRL-9591) was prepared in phenol red-free assay media (IMDM Thermo Scientific 21056023+10% FBS ATCC 302025) and cells were seeded at 20,000 cells per well (45 μL) in sterile black poly-d-lysine coated 384 well plates (Greiner 781948). Compounds were prepared at 1000× final concentration in DMSO, diluted 1:100 in assay media, and 5 μL compound was added to each well of the cell plate. Cells were incubated for 24 hours at 37° C. with 5% CO2. All the following incubations for immunofluorescence staining were at room temperature. 15 μL of 16% PFA was added to each well (3.7% final concentration) and the cells were fixed for 15 min then washed twice with DPBS. Cells were permeabilised with 0.1% Triton X-100 for 10 min, Triton X-100 was removed, then blocked with 1% BSA in DPBS for 1 hour. Cells were stained with 25 μL anti-BRD9 E4Q3F antibody (CST 48306) diluted 1:25600 in 1% BSA in DPBS for 2-3 hours. Wells were washed twice with DPBS then incubated with 25 μL of 1% BSA containing a 1:1000 dilution of Anti-rabbit Alexa Fluor™ 647 secondary antibody (Thermo Scientific A^21244) and 1 μg/mL Hoechst nuclear counter stain (Abcam ab228551) for 1 hour. Wells were washed twice with DPBS prior to imaging on a Perkin Elmer Operetta CLS with 10× air lens. Images were processed using Harmony High-Content Imaging and Analysis Software (Perkin Elmer) and the mean contrast ratio of Alexa Fluor™ 647 in central nuclei was used to quantify BRD9 protein levels. Data was further analysed using Dotmatics software and % BRD9 remaining was calculated by normalisation to average data from high and low control wells (cells treated with DMSO or 100 nM CFT-8634 respectively).

In assay [3] the target is T2, SMARCA2 (Homo sapiens, UniProt P51531).
T2 construct: a HiBiT tag knocked in at the 3′ end of SMARCA2; host or cells: HeLa SMARCA2 HiBiT knock-in cells
The assay is described as follows: SMARCA2 degradation, HeLa SMARCA2 HiBiT cells (Assay Protocol 1). Particulars: 24 hours after compound addition. As for the experimental part: Hela cells with a HiBiT tag knocked in at the 3′ end of SMARCA2 were purchased from Promega (Custom product) (1). HeLa SMARCA2 HiBiT transfected cells were treated with compounds at indicated concentrations using the FlexDrop IQ (Perkin Elmer). 24 hours after compound additions abundance of HiBiT tagged protein was quantified using NanoGlo HiBiT lytic detection system (Promega, N3050). Cell viability was measured using Cell Titre Glow cell viability assay (Promega, G9243). In each case luminescence was measured on a Pherastar platereader.

Setting [4] is: Assay Protocol 1: HiBit-BRD9 in HEK293, 6 h.

T2 sequence (P51531 whole entry): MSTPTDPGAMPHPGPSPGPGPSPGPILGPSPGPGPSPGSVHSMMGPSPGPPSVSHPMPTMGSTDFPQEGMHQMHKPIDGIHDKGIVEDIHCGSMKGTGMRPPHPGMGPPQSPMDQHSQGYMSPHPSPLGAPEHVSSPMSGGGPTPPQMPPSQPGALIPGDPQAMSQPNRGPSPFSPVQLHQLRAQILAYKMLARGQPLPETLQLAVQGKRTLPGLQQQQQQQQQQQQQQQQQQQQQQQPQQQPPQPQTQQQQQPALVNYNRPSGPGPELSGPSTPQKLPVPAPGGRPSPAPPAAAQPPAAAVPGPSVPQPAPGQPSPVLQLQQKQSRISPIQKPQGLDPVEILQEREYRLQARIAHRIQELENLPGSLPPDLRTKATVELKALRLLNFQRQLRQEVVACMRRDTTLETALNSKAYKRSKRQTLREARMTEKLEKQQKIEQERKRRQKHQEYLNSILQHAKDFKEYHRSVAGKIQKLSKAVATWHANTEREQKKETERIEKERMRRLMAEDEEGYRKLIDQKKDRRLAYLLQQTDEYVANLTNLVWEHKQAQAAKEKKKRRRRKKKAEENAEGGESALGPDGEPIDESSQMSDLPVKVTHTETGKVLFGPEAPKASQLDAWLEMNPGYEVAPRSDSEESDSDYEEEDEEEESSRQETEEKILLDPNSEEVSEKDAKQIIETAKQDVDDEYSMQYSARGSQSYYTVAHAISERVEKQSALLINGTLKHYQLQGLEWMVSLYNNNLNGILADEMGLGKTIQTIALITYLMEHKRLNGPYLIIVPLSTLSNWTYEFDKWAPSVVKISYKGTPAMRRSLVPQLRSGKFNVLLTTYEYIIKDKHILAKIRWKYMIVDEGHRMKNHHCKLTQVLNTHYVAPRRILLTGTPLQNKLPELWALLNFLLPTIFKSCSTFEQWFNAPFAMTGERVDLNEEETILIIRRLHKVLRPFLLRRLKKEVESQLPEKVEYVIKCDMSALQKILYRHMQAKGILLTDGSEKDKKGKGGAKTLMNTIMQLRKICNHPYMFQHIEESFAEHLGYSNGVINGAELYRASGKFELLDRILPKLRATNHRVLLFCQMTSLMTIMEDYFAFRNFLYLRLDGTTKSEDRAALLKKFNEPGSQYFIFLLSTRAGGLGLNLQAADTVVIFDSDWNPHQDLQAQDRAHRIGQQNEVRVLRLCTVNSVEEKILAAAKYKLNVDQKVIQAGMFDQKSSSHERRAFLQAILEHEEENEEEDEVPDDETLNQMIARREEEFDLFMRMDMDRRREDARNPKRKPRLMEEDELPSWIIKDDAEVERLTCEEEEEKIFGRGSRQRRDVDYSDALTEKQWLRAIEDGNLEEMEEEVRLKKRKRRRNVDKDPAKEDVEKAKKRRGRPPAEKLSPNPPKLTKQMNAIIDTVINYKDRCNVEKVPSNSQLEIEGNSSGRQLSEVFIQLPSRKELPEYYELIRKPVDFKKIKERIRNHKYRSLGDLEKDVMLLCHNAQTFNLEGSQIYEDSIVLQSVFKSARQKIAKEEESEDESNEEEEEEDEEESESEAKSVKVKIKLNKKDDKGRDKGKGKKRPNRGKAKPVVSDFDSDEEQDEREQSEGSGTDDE

With `COc1cc(-c2cn(C)c(=O)c(C)c2C)cc(OC)c1CN1CC2CC(C1)N2C(=O)/C(C#N)=C/c1nccs1` (mixture of isomers) [BRD9l, (E/Z)-2-(3-(2,6-dimethoxy-4-(1,4,5-trimethyl-6-oxo-1,6-dihydropyridin-3-yl)benzyl)-3,6-diazabicyclo[3.1.1]heptane-6-carbonyl)-3-(thiazol-2-yl)acrylonitrile], the DC50 (in general, the midpoint of the concentration-degradation curve) in assay [1] (setting [4]) was over 200 nM. For the same molecule, the maximal degradation (Dmax) – broadly, the greatest extent of degradation seen – in assay [2] was in the range of 30 to 50%.
The molecule `COc1cc(-c2cn(C)c(=O)c(C)c2C)cc(OC)c1CN1C2CC1CN(C(=O)/C(C#N)=C/c1nccs1)C2` (mixture of isomers) [BRD9n, (E/Z)-2-(6-(2,6-dimethoxy-4-(1,4,5-trimethyl-6-oxo-1,6-dihydropyridin-3-yl)benzyl)-3,6-diazabicyclo[3.1.1]heptane-3-carbonyl)-3-(thiazol-2-yl)acrylonitrile] gave a 50% degradation concentration (DC50) in assay [1] (setting [4]) of under 25 nM. In assay [2], this molecule displayed a DC50 of under 25 nM and a maximal degradation (Dmax) of at least 70%.
`COc1cc(-c2cn(C)c(=O)c(C)c2C)cc(OC)c1CN1C2CC1CN(C(=O)/C(C#N)=C/c1cccc(Br)n1)C2` (mixture of isomers) [BRD9o, (E/Z)-3-(6-bromopyridin-2-yl)-2-(6-(2,6-dimethoxy-4-(1,4,5-trimethyl-6-oxo-1,6-dihydropyridin-3-yl)benzyl)-3,6-diazabicyclo[3.1.1]heptane-3-carbonyl)acrylonitrile]: in assay [1] (setting [4]), the DC50 is under 25 nM. In addition, in assay [2], the DC50 was under 25 nM and the Dmax is at least 70%.
Turning to `COc1cc(-c2cn(C)c(=O)c(C)c2C)cc(OC)c1CN1CC2CCC(C1)N2C(=O)/C(C#N)=C/c1nccs1` (mixture of isomers) [BRD9q, (E/Z)-2-(3-(2,6-dimethoxy-4-(1,4,5-trimethyl-6-oxo-1,6-dihydropyridin-3-yl)benzyl)-3,8-diazabicyclo[3.2.1]octane-8-carbonyl)-3-(thiazol-2-yl)acrylonitrile], the DC50 in assay [1] (setting [4]) and in assay [2] was over 200 nM throughout. This molecule had a Dmax in assay [2] of 50 to 70%.
As to `COc1cc(-c2cn(C)c(=O)c(C)c2C)cc(OC)c1CN1CCN(C(=O)/C(C#N)=C/C(C)(C)C)CC1` [BRD9a, (E/Z)-2-(4-(2,6-dimethoxy-4-(1,4,5-trimethyl-6-oxo-1,6-dihydropyridin-3-yl)benzyl)piperazine-1-carbonyl)-4,4-dimethylpent-2-enenitrile], the DC50 in assay [1] (setting [4]) is 25 to 200 nM; in assay [2], under 25 nM.
With `COc1ccc([C@@H]2CN(C(=O)/C(C#N)=C/c3nccs3)C[C@H]2C(=O)N2CCN(Cc3c(OC)cc(-c4cn(C)c(=O)c(C)c4C)cc3OC)CC2)cc1` [BRD9ah], in assay [1], the greatest degradation seen (Dmax) lay within 30 to 50%. In assay [2], this molecule came in with a DC50 of under 25 nM and a maximal degradation (Dmax) of at least 70%.
Take `COc1cc(-c2cn(C)c(=O)c(C)c2C)cc(OC)c1CN1CCN(C(=O)[C@@H]2CN(C(=O)/C(C#N)=C/c3nccs3)C[C@H]2c2ccccc2)CC1` [BRD9ai]: the greatest degradation seen (Dmax) in assay [1] was in the range of 30 to 50%; in assay [2], 50 to 70%.
With `COc1ccc([C@@H]2CN(C(=O)/C(C#N)=C/c3nccs3)C[C@H]2C(=O)N2CCN(Cc3c(OC)cc(-c4cn(C)c(=O)c(C)c4C)cc3OC)CC2)cc1` [BRD9be], the “Dmax^1” value in assay [1] (setting [4]) was “++ (++ = ≥50% and <70%)”. Also, in assay [2], the DC50 is under 25 nM and the “Dmax^2” value is “+++ (+++ = ≥70%)”.
Regarding `COc1cc(-c2cn(C)c(=O)c(C)c2C)cc(OC)c1CN(C)C1CCN(C(=O)/C(C#N)=C/C(C)(C)C)CC1` [BRD9d, (E/Z)-2-(4-((2,6-dimethoxy-4-(1,4,5-trimethyl-6-oxo-1,6-dihydropyridin-3-yl)benzyl)(methyl)amino)piperidine-1-carbonyl)-4,4-dimethylpent-2-enenitrile], the 50% degradation concentration (DC50) in assay [1] (setting [4]) and in assay [2] was under 25 nM throughout.
Consider `COc1cc(-c2cn(C)c(=O)c(C)c2C)cc(OC)c1CN1CCC2(CC1)CCN(C(=O)/C(C#N)=C/c1cccc(Br)n1)CC2` [BRD9r, (E/Z)-3-(6-bromopyridin-2-yl)-2-(9-(2,6-dimethoxy-4-(1,4,5-trimethyl-6-oxo-1,6-dihydropyridin-3-yl)benzyl)-3,9-diazaspiro[5.5]undecane-3-carbonyl)acrylonitrile], for which the DC50 in assay [1] (setting [4]) and in assay [2] was under 25 nM each time. The molecule also showed a Dmax in assay [1] of at least 70%.
As to `COc1cc(-c2cn(C)c(=O)c(C)c2C)cc(OC)c1CN(C)C1CCN(C(=O)/C(C#N)=C/c2cccc(Br)n2)CC1` [BRD9z, (E/Z)-3-(6-bromopyridin-2-yl)-2-(4-((2,6-dimethoxy-4-(1,4,5-trimethyl-6-oxo-1,6-dihydropyridin-3-yl)benzyl)(methyl)amino)piperidine-1-carbonyl)acrylonitrile], the DC50 in assay [1] (setting [4]) and in assay [2] was under 25 nM throughout. In addition, in assay [1], the Dmax is at least 70%.
In assay [3], `CC(C)(C)/C=C(\C#N)C(=O)N1CCN(CC(=O)N[C@@H]2CCCN(c3cc(-c4ccccc4O)nnc3N)C2)CC1` [SMARCA2b] gave a Dmax of 50 to 65%.
For the molecule `CC(C)(C)/C=C(\C#N)C(=O)N1CCN(CC(=O)N2CCc3[nH]c4nnc(-c5ccccc5O)cc4c3C2)CC1` [SMARCA2e], the greatest degradation seen (Dmax) in assay [3] lay in the range of 50 to 65%.
The same measure, in the same setting: to `CC(C)C1CC(C(=O)N[C@@H]2CCCN(c3cc(-c4ccccc4O)nnc3N)C2)CN(C(=O)/C(C#N)=C/C(C)(C)C)C1` (stereo partly shown) [SMARCA2f] belongs 50 to 65%; to `CC(C)C1CC(C(=O)N[C@@H]2CCCN(c3cc(-c4ccccc4O)nnc3N)C2)CN(C(=O)/C(C#N)=C/c2nccs2)C1` (stereo partly shown) [SMARCA2g], 65 to 80%.
In assay [3], `CC(C)(C)/C=C(\C#N)C(=O)N1C[C@@H](C(=O)N[C@@H]2CCCN(c3cc(-c4ccccc4O)nnc3N)C2)[C@H](C2CCCCC2)C1` [SMARCA2h] showed a Dmax of 65 to 80%.
Same read-out and setting: for `COc1ccc(C2CC(C(=O)N[C@@H]3CCCN(c4cc(-c5ccccc5O)nnc4N)C3)CN(C(=O)/C(C#N)=C/c3ccn(C)n3)C2)cc1` (stereo partly shown) [SMARCA2i] the value was 50 to 65%; for `CC(C)[C@@H]1CN(C(=O)/C(C#N)=C/C(C)(C)C)C[C@H]1C(=O)N[C@@H]1CCCN(c2cc(-c3ccccc3O)nnc2N)C1` [SMARCA2j], 65 to 80%.
Take `N#C/C(=C\c1nccs1)C(=O)N1CCCC(C(=O)N[C@@H]2CCCN(c3cc(-c4ccccc4O)nnc3N)C2)C1` (stereo partly shown) [SMARCA2l]: in assay [3], the greatest degradation seen (Dmax) was 50 to 65%.
